Reference: publication PMC9926234, “Iterative computational design and crystallographic screening identifies potent inhibitors targeting the Nsp3 macrodomain of SARS-CoV-2” (Proceedings of the National Academy of Sciences of the …, 2023)

The compounds below were run against T1, SARS-CoV-2 NSP3 Mac1 (Severe acute respiratory syndrome coronavirus 2, UniProt P0DTD1) (assay: not given). Conditions: DSF dose responsiveness, 1 µM nsp3 mac1; adj p given.
Type: binding
Parameters: contains a conserved macrodomain enzyme (Mac1)
In short: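 Differential scanning fluorimetry using 5 µM Fluorescent Yellow dye in place of SYPRO Orange. Compounds run in triplicate at seven two-fold dilutions from 1,000 or 100 μM, with ΔTma taken against a DMSO control in the same plate region. Dose-response significance assessed by Spearman's coefficient between concentration and ΔTma.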

Row | SMILES | Spearman est (compound concentration vs apparent Tm)
1 | C[C@H]1CN(C(=O)c2cccc3[nH]c(=O)oc23)C[C@@H]1C(=O)O [ZINC000833624464] | −0.44
2 | Cc1nnc(CNc2cnc(N)c(Cl)n2)n1C1CC1 [ZINC000893101964] | −0.12
3 | CC(CSc1nnc2[nH]cnn12)c1ccccc1 (stereo not shown) [ZINC000920153280] | −0.66
4 | Cc1noc(-c2ccnc(-c3ccnc4[nH]ccc34)c2)n1 [ZINC001240411747] | −0.16
5 | Cc1cc(S(=O)(=O)N2CCC[C@H](C(N)=O)C2)cnc1N [ZINC001364774273] | 0.3
6 | CN(Cc1nnc2c(=O)[nH]ccn12)c1ccc2nccnc2n1 [ZINC001472868186] | 0.79

Same assay, conditions: maximal thermal upshift

Row | SMILES | DSF max dTma
7 | C[C@H]1CN(C(=O)c2cccc3[nH]c(=O)oc23)C[C@@H]1C(=O)O [ZINC000833624464] | 0.3 ˚C
8 | Cc1nnc(CNc2cnc(N)c(Cl)n2)n1C1CC1 [ZINC000893101964] | 0.12 ˚C
9 | Cc1noc(-c2ccnc(-c3ccnc4[nH]ccc34)c2)n1 [ZINC001240411747] | 0.04 ˚C
10 | Cc1cc(S(=O)(=O)N2CCC[C@H](C(N)=O)C2)cnc1N [ZINC001364774273] | 0.21 ˚C

Same assay, conditions: maximal thermal upshift vs DMSO control

Row | SMILES | DSF max dTma
11 | CC(CSc1nnc2[nH]cnn12)c1ccccc1 (stereo not shown) [ZINC000920153280] | 0 °C
12 | CN(Cc1nnc2c(=O)[nH]ccn12)c1ccc2nccnc2n1 [ZINC001472868186] | 0.81 °C

Each compound was assayed against T1, SARS-CoV-2 NSP3 Mac1 (assay: not given). Conditions: PanDDA 1-BDC (background density correction) of the event; crystal soak 100 mM; PanDDA run dmso_34.
Type: binding

Row | SMILES | 1-BDC
13 | CC(CSc1nnc2[nH]cnn12)c1ccccc1 (stereo not shown) [ZINC000920153280] | 0.2

Same assay, conditions: PanDDA 1-BDC of the event; compound stock 100 mM, Echo dispense volume 40 nl

Row | SMILES | 1-BDC
14 | O=C(O)C[C@@H]1CN(c2ncnc3[nH]c4cc(F)ccc4c23)C[C@H](CO)O1 [LL114_0001] | 0.12

Same assay, conditions: PanDDA 1-BDC value of the event; crystal soak, compound concentration 100 mM; per dataset

Row | SMILES | 1-BDC
15 | Cc1nnc(CNc2cnc(N)c(Cl)n2)n1C1CC1 [ZINC000893101964] | 0.04

Same assay, conditions: PanDDA event map 1-BDC; crystal soak, Compound_concentration 100 mM; PanDDA run dmso_34 or nohits_35 per dataset

Row | SMILES | 1-BDC
16 | O=C(O)C[C@@H]1CN(c2ncnc3[nH]c4cc(F)ccc4c23)C[C@H](CO)O1 [LL114_0001] | 0.14

Same assay, conditions: PanDDA event map, 1 minus background density correction; crystal soaking of Mac1

Row | SMILES | 1-BDC (PanDDA) | 1-BDC
17 | O=C(O)C[C@@H]1CN(c2ncnc3[nH]c4cc(F)ccc4c23)C[C@H](CO)O1 [LL114_0001] | 0.12 | –
18 | C[C@H]1CN(C(=O)c2cccc3[nH]c(=O)oc23)C[C@@H]1C(=O)O [ZINC000833624464] | 0.08 | –
19 | Cc1nnc(CNc2cnc(N)c(Cl)n2)n1C1CC1 [ZINC000893101964] | – | 0.04
20 | CC(CSc1nnc2[nH]cnn12)c1ccccc1 (stereo not shown) [ZINC000920153280] | – | 0.2
21 | Cc1noc(-c2ccnc(-c3ccnc4[nH]ccc34)c2)n1 [ZINC001240411747] | 0.07 | –
22 | Cc1cc(S(=O)(=O)N2CCC[C@H](C(N)=O)C2)cnc1N [ZINC001364774273] | – | 0.1
23 | CN(Cc1nnc2c(=O)[nH]ccn12)c1ccc2nccnc2n1 [ZINC001472868186] | – | 0.15

Same assay, conditions: PanDDA event map, crystal soak, Compound_concentration 30 mM; PanDDA run dmso_34

Row | SMILES | 1-BDC
24 | CN(Cc1nnc2c(=O)[nH]ccn12)c1ccc2nccnc2n1 [ZINC001472868186] | 0.15

Same assay, conditions: crystal soak, Compound_concentration 30 mM, Echo dispense 40 nl; PanDDA run dmso_34

Row | SMILES | PanDDA hit?
25 | CN(Cc1nnc2c(=O)[nH]ccn12)c1ccc2nccnc2n1 [ZINC001472868186] | TRUE

Same assay, conditions: crystal soak, Compound_concentration 100 mM, Echo dispense 40 nl; PanDDA run dmso_34 or nohits_35 per dataset

Row | SMILES | PanDDA hit?
26 | O=C(O)C[C@@H]1CN(c2ncnc3[nH]c4cc(F)ccc4c23)C[C@H](CO)O1 [LL114_0001] | TRUE

Same assay, conditions: crystal soak, compound concentration 100 mM; PanDDA run dmso_34; series docking_lead-like_1

Row | SMILES | PanDDA hit?
27 | CC(CSc1nnc2[nH]cnn12)c1ccccc1 (stereo not shown) [ZINC000920153280] | TRUE

Same assay, conditions: crystal soak, compound concentration 100 mM; per dataset

Row | SMILES | PanDDA hit?
28 | Cc1nnc(CNc2cnc(N)c(Cl)n2)n1C1CC1 [ZINC000893101964] | TRUE

Same assay, conditions: crystal soak, compound stock 100 mM, Echo dispense volume 40 nl

Row | SMILES | PanDDA hit?
29 | O=C(O)C[C@@H]1CN(c2ncnc3[nH]c4cc(F)ccc4c23)C[C@H](CO)O1 [LL114_0001] | TRUE

Same assay, conditions: ligand modeled from this dataset; compound concentration 100 mM

Row | SMILES | Modeled?
30 | C[C@H]1CN(C(=O)c2cccc3[nH]c(=O)oc23)C[C@@H]1C(=O)O [ZINC000833624464] | TRUE
31 | Cc1noc(-c2ccnc(-c3ccnc4[nH]ccc34)c2)n1 [ZINC001240411747] | TRUE

Same assay, conditions: ligand modeled in structure, crystal soak, Compound_concentration 30 mM

Row | SMILES | Modeled?
32 | CN(Cc1nnc2c(=O)[nH]ccn12)c1ccc2nccnc2n1 [ZINC001472868186] | TRUE

Same assay, conditions: ligand modeled in structure; compound stock 100 mM, Echo dispense volume 40 nl

Row | SMILES | Modeled?
33 | O=C(O)C[C@@H]1CN(c2ncnc3[nH]c4cc(F)ccc4c23)C[C@H](CO)O1 [LL114_0001] | TRUE

Same assay, conditions: ligand modeled in the crystal structure; crystal soak 100 mM; PanDDA run dmso_34

Row | SMILES | Modeled?
34 | CC(CSc1nnc2[nH]cnn12)c1ccccc1 (stereo not shown) [ZINC000920153280] | TRUE

Same assay, conditions: ligand modeled in the crystal structure; crystal soak, compound concentration 100 mM; per dataset

Row | SMILES | Modeled?
35 | Cc1nnc(CNc2cnc(N)c(Cl)n2)n1C1CC1 [ZINC000893101964] | TRUE

Same assay, conditions: ligand occupancy after refinement (phenix.refine); crystal soaking of Mac1

Row | SMILES | Refined occupancy
36 | O=C(O)C[C@@H]1CN(c2ncnc3[nH]c4cc(F)ccc4c23)C[C@H](CO)O1 [LL114_0001] | 24
37 | C[C@H]1CN(C(=O)c2cccc3[nH]c(=O)oc23)C[C@@H]1C(=O)O [ZINC000833624464] | 16
38 | Cc1nnc(CNc2cnc(N)c(Cl)n2)n1C1CC1 [ZINC000893101964] | 8
39 | CC(CSc1nnc2[nH]cnn12)c1ccccc1 (stereo not shown) [ZINC000920153280] | 40
40 | Cc1noc(-c2ccnc(-c3ccnc4[nH]ccc34)c2)n1 [ZINC001240411747] | 14
41 | Cc1cc(S(=O)(=O)N2CCC[C@H](C(N)=O)C2)cnc1N [ZINC001364774273] | 20
42 | CN(Cc1nnc2c(=O)[nH]ccn12)c1ccc2nccnc2n1 [ZINC001472868186] | 30

Same assay, conditions: overall hit flag: binding in crystallographic soaking or the HTRF-based binding assay

Row | SMILES | HIT*
43 | CC(CSc1nnc2[nH]cnn12)c1ccccc1 (stereo not shown) [ZINC000920153280] | Y
44 | CN(Cc1nnc2c(=O)[nH]ccn12)c1ccc2nccnc2n1 [ZINC001472868186] | Y

Same assay, conditions: true hit = binding in crystallographic soaking or the HTRF-based binding assay

Row | SMILES | HIT*
45 | O=C(O)C[C@@H]1CN(c2ncnc3[nH]c4cc(F)ccc4c23)C[C@H](CO)O1 [LL114_0001] | Y
46 | C[C@H]1CN(C(=O)c2cccc3[nH]c(=O)oc23)C[C@@H]1C(=O)O [ZINC000833624464] | Y
47 | Cc1nnc(CNc2cnc(N)c(Cl)n2)n1C1CC1 [ZINC000893101964] | Y
48 | Cc1noc(-c2ccnc(-c3ccnc4[nH]ccc34)c2)n1 [ZINC001240411747] | Y
49 | Cc1cc(S(=O)(=O)N2CCC[C@H](C(N)=O)C2)cnc1N [ZINC001364774273] | Y

The compounds below were run against T1, SARS-CoV-2 NSP3 Mac1 (assay: biochemical). Conditions: HTRF ADPr-peptide displacement from SARS-CoV-2 Mac1; read-out: IC50.
Type: binding

Row | SMILES | IC50
50 | O=C(O)C[C@@H]1CN(c2ncnc3[nH]c4cc(F)ccc4c23)C[C@H](CO)O1 [LL114_0001] | 8 µM

Same assay, conditions: HTRF; read-out: IC50

Row | SMILES | IC50
51 | O=C(O)C[C@@H]1CN(c2ncnc3[nH]c4cc(F)ccc4c23)C[C@H](CO)O1 [LL114_0001] | 8.2 µM

Same assay, conditions: Ki estimation from HTRF-derived IC50, Cheng-Prusoff, peptide 400nM, Kd 2.68µM; read-out: Ki***

Row | SMILES | Ki
52 | O=C(O)C[C@@H]1CN(c2ncnc3[nH]c4cc(F)ccc4c23)C[C@H](CO)O1 [LL114_0001] | 7.1 µM
